{"source": "paper PMC9325707", "about": "“Vav2 is a novel APP-interacting protein that regulates APP protein level” (Scientific Reports, 2022)", "key": {"Vav2-SH2 domain [1]": {"target": "T1, Vav2-SH2 domain (Homo sapiens, UniProt P52735)", "T1 construct": "the DNA fragment encoding the SH2 domain of Vav2 (residues 659–771) was cloned into a pET28a (+) (Novagen) plasmid; 6xHis (N, cleaved yes); made in house; host or cells: Escherichia coli BL21 (DE3)", "T1 sequence (P52735 659-771)": "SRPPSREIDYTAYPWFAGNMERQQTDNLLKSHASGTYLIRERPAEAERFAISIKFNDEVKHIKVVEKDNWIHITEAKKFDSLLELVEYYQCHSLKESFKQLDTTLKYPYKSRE", "assay": "NMR titration (2D 1H-15N HSQC) of 15N-labeled Vav2-SH2 with APP peptides", "assay_type": "binding", "conditions": "0.1 mM 15N-Vav2-SH2, 20 mM Tris/HCl, 100 mM NaCl, 3 mM DTT, 90% H2O/10% D2O, pH 7.0, 293 K, 600 MHz; protein:peptide up to 1:3 (APP-pY682) or 1:4 (APP-Y682)", "procedure": "The recombinant plasmids harboring His-tagged or GST-tagged Vav2-SH2 were transformed into Escherichia coli BL21 (DE3) (Novagen) strain. Cells were grown at 37 °C up to an A600 nm of 0.8, and then were induced with 0.5 mM IPTG at 25 °C for 8 h. For the production of uniformly ^15N-labeled samples, cells were grown in minimal medium using ^15NH4CL (0.5 g/L) as the sole nitrogen source. ^15N-NH4Cl was purchased from Cambridge Isotope Laboratories, Inc. The His-tagged proteins were purified by a chelated-nickel column followed by Thrombin protease treatment to remove the tag as previous described. The GST and GST fusion proteins were purified using immobilized glutathione. All proteins were further purified on a Superdex75 gel-filtration column (GE Healthcare, Piscataway, NJ, USA). The purity of proteins was confirmed by SDS–PAGE. Protein concentrations were estimated with absorbance spectroscopy using the molar absorption coefficient. […]\nThe NMR sample of the apo Vav2-SH2 contained 0.1 mM of protein was dissolved in NMR buffer: 20 mM Tris/HCl with 100 mM NaCl, 3 mM DTT in 90% H2O, 10% D2O (pH 7.0). […] A series of ^1H–^15N HSQC spectra were recorded as the titrant gradually titrated into the protein solutions using the Bruker hsqcfpf3gpphwg pulse program. […] NMR data were processed with NMRPipe[67] and analyzed using Sparky3 (Goddard and Kneller, University of California, San Francisco). […]"}, "Vav2-SH2 domain [2]": {"target": "T1, Vav2-SH2 domain", "assay": "ITC binding of APP peptides to Vav2-SH2", "conditions": "298 K, 10 mM Tris/HCl, 100 mM NaCl", "text": "For NMR and ITC experiments, the DNA fragment encoding the SH2 domain of Vav2 (residues 659–771) was cloned into a pET28a (+) (Novagen) plasmid as described previously, generating a fusion protein with an N-terminus 6 × His tag. For GST pull-down experiments, the Vav2-SH2 was subcloned into pGEX4T-1 vector. The APP expression plasmid pAPPsw and the Vav2 expression plasmid pCMV5-myc-Vav2 were constructed as previously described[55],[66]. Mutants were generated by PCR mediated site-directed mutagenesis. All the constructs were verified by DNA sequencing.\nThe recombinant plasmids harboring His-tagged or GST-tagged Vav2-SH2 were transformed into Escherichia coli BL21 (DE3) (Novagen) strain. Cells were grown at 37 °C up to an A600 nm of 0.8, and then were induced with 0.5 mM IPTG at 25 °C for 8 h. […] Protein concentrations were estimated with absorbance spectroscopy using the molar absorption coefficient. […]\nITC experiments were performed at 298 K on a PEAQ-ITC titration calorimeter (MicroCal, Northampton, MA). […] ITC data were analyzed with a single-site binding model using Microcal PEAQ-ITC software."}, "[3]": {"target": "APP pY682 peptide (Homo sapiens) (UniProt P05067)", "sequence (P05067 whole entry, looked up, tested part not stated)": "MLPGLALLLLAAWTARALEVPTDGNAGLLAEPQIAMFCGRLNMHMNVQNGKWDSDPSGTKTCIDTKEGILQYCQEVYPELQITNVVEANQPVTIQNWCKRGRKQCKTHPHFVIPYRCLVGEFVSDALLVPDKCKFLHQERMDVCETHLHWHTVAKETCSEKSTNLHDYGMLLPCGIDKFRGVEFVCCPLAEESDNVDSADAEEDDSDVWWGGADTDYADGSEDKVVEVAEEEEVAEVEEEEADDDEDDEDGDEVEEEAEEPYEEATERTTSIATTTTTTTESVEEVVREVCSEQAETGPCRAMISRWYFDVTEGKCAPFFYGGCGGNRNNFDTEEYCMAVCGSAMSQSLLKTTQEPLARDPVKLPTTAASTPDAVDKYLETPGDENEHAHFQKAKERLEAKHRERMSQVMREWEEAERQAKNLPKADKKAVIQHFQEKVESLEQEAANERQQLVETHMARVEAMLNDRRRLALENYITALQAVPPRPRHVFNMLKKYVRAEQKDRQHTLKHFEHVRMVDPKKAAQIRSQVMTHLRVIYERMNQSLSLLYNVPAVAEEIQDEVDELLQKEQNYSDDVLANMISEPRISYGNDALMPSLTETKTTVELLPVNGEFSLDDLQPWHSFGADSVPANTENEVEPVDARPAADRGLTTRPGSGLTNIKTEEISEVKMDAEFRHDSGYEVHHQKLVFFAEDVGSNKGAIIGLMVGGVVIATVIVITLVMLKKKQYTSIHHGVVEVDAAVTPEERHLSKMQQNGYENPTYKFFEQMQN", "conditions": "cited from earlier work"}, "full-length APPsw": {"tested_on": "full-length APPsw", "assay": "GST pull-down of full-length APPsw from 20E2 cell lysate", "assay_type": "binding", "conditions": "20E2 cell lysate 0.2 mg, 1 mg GST fusion on glutathione-agarose, 2 h; western blot (C20)", "procedure": "The recombinant plasmids harboring His-tagged or GST-tagged Vav2-SH2 were transformed into Escherichia coli BL21 (DE3) (Novagen) strain. Cells were grown at 37 °C up to an A600 nm of 0.8, and then were induced with 0.5 mM IPTG at 25 °C for 8 h. For the production of uniformly ^15N-labeled samples, cells were grown in minimal medium using ^15NH4CL (0.5 g/L) as the sole nitrogen source. ^15N-NH4Cl was purchased from Cambridge Isotope Laboratories, Inc. The His-tagged proteins were purified by a chelated-nickel column followed by Thrombin protease treatment to remove the tag as previous described. The GST and GST fusion proteins were purified using immobilized glutathione. All proteins were further purified on a Superdex75 gel-filtration column (GE Healthcare, Piscataway, NJ, USA). The purity of proteins was confirmed by SDS–PAGE. Protein concentrations were estimated with absorbance spectroscopy using the molar absorption coefficient.\nOne hundred microliter glutathione-agarose beads were incubated with 1 mg purified GST or indicated GST-SH2 fusions and the mutant GST-SH2^R680A for 2 h at 4 °C in GST binding buffer (20 mM Tris/HCl, pH 7.4, 150 mM NaCl and 1 mM EDTA, 0.5% TritonX-100). […] After washing 4 times with GST binding buffer, beads were boiled in SDS sample buffer, run on 12% SDS–PAGE gel and analyzed by Coomassie or immunoblotting."}}, "note": "Non-standard residues stand in square brackets, D forms with d. Residues, ends and D or L forms follow the SMILES beside them. pY = N[C@@H](Cc1ccc(OP(=O)(O)O)cc1)C(=O)O", "data": [{"molecule": "QNGYENPT [APP-Y682]", "values": [{"measurement": "chemical shift perturbations (CSPs) in 1H-15N HSQC of Vav2-SH2", "setting": "Vav2-SH2 domain [1]", "value": "did not induce any chemical shift perturbations"}, {"measurement": "binding in ITC (result in words)", "setting": "Vav2-SH2 domain [2]; pH 7.4, 0.75 mM peptide titrated into 30 μM Vav2-SH2", "value": "no binding"}]}, {"molecule": "C[C@@H](O)[C@H](NC(=O)[C@@H]1CCCN1C(=O)[C@H](CC(N)=O)NC(=O)[C@H](CCC(=O)O)NC(=O)[C@H](Cc1ccc(OP(=O)(O)O)cc1)NC(=O)CNC(=O)[C@H](CC(N)=O)NC(=O)[C@@H](N)CCC(N)=O)C(=O)O", "note": "[APP-pY682] (H-QNG[pY]ENPT-OH)", "values": [{"measurement": "Kd", "setting": "Vav2-SH2 domain [2]; pH 7.4, 0.75 mM peptide titrated into 30 μM Vav2-SH2, single-site binding model", "value": 860, "unit": "nM"}]}, {"molecule": "Grb2 SH2 (from UniProt P62993)", "values": [{"measurement": "Kd", "setting": "[3]", "value": 290, "unit": "nM"}]}, {"molecule": "GST-Vav2-SH2: wild-type GST-Vav2-SH2 protein (protein, left off: GST, end not stated, kept, wild-type GST-Vav2-SH2 protein) SRPPSREIDYTAYPWFAGNMERQQTDNLLKSHASGTYLIRERPAEAERFAISIKFNDEVKHIKVVEKDNWIHITEAKKFDSLLELVEYYQCHSLKESFKQLDTTLKYPYKSRE", "values": [{"measurement": "binding to full-length APPsw in GST pull-down (result in words)", "setting": "full-length APPsw", "value": "bound selectively to full-length APPsw"}]}, {"molecule": "R680A mutant: R680A mutant of GST-Vav2-SH2 protein (negative control) (protein, left off: GST, end not stated, kept) SRPPSREIDYTAYPWFAGNMEAQQTDNLLKSHASGTYLIRERPAEAERFAISIKFNDEVKHIKVVEKDNWIHITEAKKFDSLLELVEYYQCHSLKESFKQLDTTLKYPYKSRE", "values": [{"measurement": "binding to full-length APPsw in GST pull-down (result in words)", "setting": "full-length APPsw", "value": "not GST alone or the R680A mutant bound selectively to full-length APPsw"}]}]}
